PubChem BioAssay (NCI)
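At the GI50, growth is halved. TGI is the concentration that stops growth completely.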

Experiments:
Experiment in all cases: inhibition of tumour cell growth, NCI panel, 384-well format
SR leukemia = test system: SR leukemia
CAKI-1 renal = test system: CAKI-1 renal
HOP-92 NSCLC = test system: HOP-92 NSCLC
DU-145 prostate = test system: DU-145 prostate
EKVX NSCLC = test system: EKVX NSCLC
COLO 205 colon = test system: COLO 205 colon
UO-31 renal = test system: UO-31 renal
A549 NSCLC = test system: A549 NSCLC
OVCAR-3 ovarian = test system: OVCAR-3 ovarian
HT29 colon = test system: HT29 colon
A498 renal = test system: A498 renal
MALME-3M melanoma = test system: MALME-3M melanoma
MOLT-4 leukemia = test system: MOLT-4 leukemia
NCI-H522 lung = test system: NCI-H522 lung
IGROV1 ovarian = test system: IGROV1 ovarian
TK-10 renal = test system: TK-10 renal
MCF7 breast = test system: MCF7 breast
T-47D breast = test system: T-47D breast
LOX IMVI melanoma = test system: LOX IMVI melanoma
KM12 colon = test system: KM12 colon
NCI/ADR-RES ovarian = test system: NCI/ADR-RES ovarian
SK-OV-3 ovarian = test system: SK-OV-3 ovarian
K-562 leukemia = test system: K-562 leukemia
NCI-H23 lung = test system: NCI-H23 lung
SN12C renal = test system: SN12C renal
HCC-2998 colon = test system: HCC-2998 colon
M14 melanoma = test system: M14 melanoma
SK-MEL-5 melanoma = test system: SK-MEL-5 melanoma
SF-539 CNS = test system: SF-539 CNS
OVCAR-4 ovarian = test system: OVCAR-4 ovarian
ACHN renal = test system: ACHN renal
NCI-H322M lung = test system: NCI-H322M lung
MDA-MB-468 breast = test system: MDA-MB-468 breast
NCI-H226 lung = test system: NCI-H226 lung
RPMI-8226 leukemia = test system: RPMI-8226 leukemia
OVCAR-8 ovarian = test system: OVCAR-8 ovarian
SF-268 CNS = test system: SF-268 CNS
SF-295 CNS = test system: SF-295 CNS
HL-60(TB) leukemia = test system: HL-60(TB) leukemia
UACC-257 melanoma = test system: UACC-257 melanoma
HOP-62 NSCLC = test system: HOP-62 NSCLC
NCI-H460 NSCLC = test system: NCI-H460 NSCLC
MDA-MB-435 melanoma = test system: MDA-MB-435 melanoma
UACC-62 melanoma = test system: UACC-62 melanoma
SNB-75 CNS = test system: SNB-75 CNS
BT-549 breast = test system: BT-549 breast
HS 578T breast = test system: HS 578T breast
PC-3 prostate = test system: PC-3 prostate
HCT-116 colon = test system: HCT-116 colon
U251 glioblastoma = test system: U251 glioblastoma
SNB-19 CNS = test system: SNB-19 CNS
SW-620 colon = test system: SW-620 colon
CCRF-CEM leukemia = test system: CCRF-CEM leukemia
MDA-MB-231 breast = test system: MDA-MB-231 breast
SK-MEL-28 melanoma = test system: SK-MEL-28 melanoma
HCT-15 colon = test system: HCT-15 colon
RXF 393 renal = test system: RXF 393 renal
786-0 renal = test system: 786-0 renal

In the case of `C[C@@H](Nc1cc(F)cc(F)c1)c1cc(C(=O)N(C)C)cc2c(=O)cc(N3CCOCC3)oc12`, the GI50 (SR leukemia) is reported as 0.385 µM, the TGI (SR leukemia) is reported as 16.6 µM and the GI50 (CAKI-1 renal) is reported as 0.25 µM. The TGI (CAKI-1 renal) was greater than 100 µM, the GI50 (HOP-92 NSCLC) was 0.627 µM and the TGI (HOP-92 NSCLC) was greater than 100 µM. For the same compound, the GI50 (DU-145 prostate) was 17.4 µM, the TGI (DU-145 prostate) was greater than 100 µM and the GI50 (EKVX NSCLC) was 2.4 µM. It also gave a TGI (EKVX NSCLC) greater than 100 µM, a GI50 (COLO 205 colon) of 13.4 µM and a TGI (COLO 205 colon) greater than 100 µM. For the same compound, the GI50 (UO-31 renal) was 6.38 µM, the TGI (UO-31 renal) was greater than 100 µM and the GI50 (A549 NSCLC) was 7.85 µM. For the same compound, the TGI (A549 NSCLC) was greater than 100 µM, the GI50 (OVCAR-3 ovarian) was 0.465 µM and the TGI (OVCAR-3 ovarian) was 18 µM. For the same compound, the GI50 (HT29 colon) was 6.45 µM, the TGI (HT29 colon) was greater than 100 µM and the GI50 (A498 renal) was 0.0447 µM. The TGI (A498 renal) was 1.31 µM, the GI50 (MALME-3M melanoma) was 1.13 µM and the TGI (MALME-3M melanoma) was 63.1 µM. The GI50 (MOLT-4 leukemia) was 1.11 µM, the TGI (MOLT-4 leukemia) was 10.8 µM and the GI50 (NCI-H522 lung) was 23.7 µM. It also gave a TGI (NCI-H522 lung) greater than 100 µM, a GI50 (IGROV1 ovarian) of 0.392 µM and a TGI (IGROV1 ovarian) of 3.29 µM. It also gave a GI50 (TK-10 renal) of 3.57 µM, a TGI (TK-10 renal) greater than 100 µM and a GI50 (MCF7 breast) of 0.666 µM. The TGI (MCF7 breast) was greater than 100 µM, the GI50 (T-47D breast) was 0.591 µM and the TGI (T-47D breast) was 9.05 µM. For the same compound, the GI50 (LOX IMVI melanoma) was 17 µM, the TGI (LOX IMVI melanoma) was greater than 100 µM and the GI50 (KM12 colon) was 23.5 µM. The TGI (KM12 colon) was greater than 100 µM, the GI50 (NCI/ADR-RES ovarian) was greater than 100 µM and the TGI (NCI/ADR-RES ovarian) was greater than 100 µM. The GI50 (SK-OV-3 ovarian) was 3.48 µM, the TGI (SK-OV-3 ovarian) was greater than 100 µM and the GI50 (K-562 leukemia) was 55.1 µM. It also gave a TGI (K-562 leukemia) greater than 100 µM, a GI50 (NCI-H23 lung) of 31.8 µM and a TGI (NCI-H23 lung) greater than 100 µM. The GI50 (SN12C renal) was 0.215 µM, the TGI (SN12C renal) was greater than 100 µM and the GI50 (HCC-2998 colon) was 5.66 µM. It also gave a TGI (HCC-2998 colon) of 55.6 µM, a GI50 (M14 melanoma) of 20.4 µM and a TGI (M14 melanoma) greater than 100 µM. It also gave a GI50 (SK-MEL-5 melanoma) of 11.3 µM, a TGI (SK-MEL-5 melanoma) greater than 100 µM and a GI50 (SF-539 CNS) of 12 µM. It also gave a TGI (SF-539 CNS) greater than 100 µM, a GI50 (OVCAR-4 ovarian) greater than 100 µM and a TGI (OVCAR-4 ovarian) greater than 100 µM. It also gave a GI50 (ACHN renal) of 6.68 µM, a TGI (ACHN renal) greater than 100 µM and a GI50 (NCI-H322M lung) of 8.36 µM. For the same compound, the TGI (NCI-H322M lung) was 78 µM, the GI50 (MDA-MB-468 breast) was 1.59 µM and the TGI (MDA-MB-468 breast) was 12.7 µM. The GI50 (NCI-H226 lung) was 67.6 µM, the TGI (NCI-H226 lung) was greater than 100 µM and the GI50 (RPMI-8226 leukemia) was 16.6 µM. For the same compound, the TGI (RPMI-8226 leukemia) was 51.1 µM, the GI50 (OVCAR-8 ovarian) was 10.3 µM and the TGI (OVCAR-8 ovarian) was greater than 100 µM. It also gave a GI50 (SF-268 CNS) of 13.1 µM, a TGI (SF-268 CNS) greater than 100 µM and a GI50 (SF-295 CNS) of 0.611 µM. For the same compound, the TGI (SF-295 CNS) was 16 µM, the GI50 (HL-60(TB) leukemia) was 0.599 µM and the TGI (HL-60(TB) leukemia) was 9.14 µM. The GI50 (UACC-257 melanoma) was 17.2 µM, the TGI (UACC-257 melanoma) was greater than 100 µM and the GI50 (HOP-62 NSCLC) was 28.8 µM. It also gave a TGI (HOP-62 NSCLC) greater than 100 µM, a GI50 (NCI-H460 NSCLC) of 4.5 µM and a TGI (NCI-H460 NSCLC) greater than 100 µM. For the same compound, the GI50 (MDA-MB-435 melanoma) was 87 µM, the TGI (MDA-MB-435 melanoma) was greater than 100 µM and the GI50 (UACC-62 melanoma) was 0.981 µM. The TGI (UACC-62 melanoma) was 24.7 µM, the GI50 (SNB-75 CNS) was 0.762 µM and the TGI (SNB-75 CNS) was greater than 100 µM. It also gave a GI50 (BT-549 breast) of 0.341 µM, a TGI (BT-549 breast) greater than 100 µM and a GI50 (HS 578T breast) of 0.902 µM. The TGI (HS 578T breast) was 32.8 µM, the GI50 (PC-3 prostate) was 0.261 µM and the TGI (PC-3 prostate) was greater than 100 µM. For the same compound, the GI50 (HCT-116 colon) was 10.5 µM, the TGI (HCT-116 colon) was greater than 100 µM and the GI50 (U251 glioblastoma) was 39.2 µM. It also gave a TGI (U251 glioblastoma) greater than 100 µM, a GI50 (SNB-19 CNS) of 68.6 µM and a TGI (SNB-19 CNS) greater than 100 µM. It also gave a GI50 (SW-620 colon) of 61.4 µM, a TGI (SW-620 colon) greater than 100 µM and a GI50 (CCRF-CEM leukemia) of 13.4 µM. For the same compound, the TGI (CCRF-CEM leukemia) was 57.9 µM, the GI50 (MDA-MB-231 breast) was 49.1 µM and the TGI (MDA-MB-231 breast) was greater than 100 µM. It also gave a GI50 (SK-MEL-28 melanoma) of 1.39 µM, a TGI (SK-MEL-28 melanoma) greater than 100 µM and a GI50 (HCT-15 colon) of 25.5 µM. It also gave a TGI (HCT-15 colon) greater than 100 µM, a GI50 (RXF 393 renal) of 0.182 µM and a TGI (RXF 393 renal) of 8.24 µM. For the same compound, the GI50 ([…]-0 renal) was 1.24 µM and the TGI (786-0 renal) was greater than 100 µM.
